In test [1] the test system is P. aeruginosa, WT, na1B and ΔABM. Kind of test: Overnight culture, absorbance at 600 nm by UV-vis spectroscopy (MIC). It counts as cell-based, Pseudomonas aeruginosa. The settings on record: antibiotic concentration 3.13, 15.65 or 31.3 μg/mL, three strains. As to the method:
After the overnight incubation, the absorbance of the […] an UV-vis spectrometer to determine the concentrations of bacterial cells based upon the light scattering of bacterial cells for the three strains of P. aeruginosa, WT, na1B and ΔABM. For each strain of P. aeruginosa cells and each concentration of the silver coated gold particles, the absorbances of 5 samples of the culture medium were measured with the absorbance of each sample measured 3 times and the average absorbance was calculated. The absorbance of ultra-pure water containing the corresponding concentration of silver coated gold particles was subtracted from the average absorbance and the resulting absorbance was plotted in FIG. 1 versus the concentrations of the silver coated gold particles used in the incubation. […] Thus, the MICs of the silver coated gold particles were determined to be about 20 pM for these three strains of P. aeruginosa.
With a UV-vis spectrometer, the absorbance of each sample of the culture medium was measured at 600 nm after the overnight incubation to determine the P. aeruginosa cell concentration based upon light scattering of cells. For each strain of P. aeruginosa cells, the absorbances of 4 samples of the P. aeruginosa culture medium containing azthreonam or gentamicin at a concentration of 0.313, 3.13, 15.65 or 31.3 μg/mL were measured. […]

The subject of another test is WT P. aeruginosa. Particulars: published literature; cited from earlier work.
Test [2] concerns P. aeruginosa, WT, na1B and ΔABM. Briefly: Overnight culture, cell count by single-cell dark-field microscopy (MIC). Particulars: antibiotic concentration 3.13, 15.65 or 31.3 μg/mL. The class given is cell-based, Pseudomonas aeruginosa. The source says: Images were taken of the 5 samples using a dark-field microscope equipped with a Micromax CCD camera. For each of the three strains of P. aeruginosa, 5 samples of the […], 0.2, 2, 20 or 90 pM were examined using dark-field microscopy to count the number of P. aeruginosa cells present. For each sample, 5 pictures were taken at different locations to obtain representative numbers of P. aeruginosa cells present in each sample and the numbers of P. aeruginosa cells counted in the 5 pictures were summed to obtain the total number of P. aeruginosa cells in the 5 pictures. FIG. […] However, at a metallic nanoparticle concentration of 0, 0.2 or 2 pM, there were 200 or more P. aeruginosa cells in the 5 pictures of the culture medium. […] There were green, blue and red metallic nanoparticles, but the most abundant were green. The red nanoparticles appeared to be the brightest under the dark-field microscope because of the larger size.
After the overnight incubation described above, images were taken using a dark-field microscope equipped with a Micromax CCD camera. For each of the three strains of P. aeruginosa in the presence of azthreonam or gentamicin at a concentration of 0.313, 3.13, 15.65 or 31.3 μg/mL, 4 samples of the culture medium were subjected to single-cell dark-field microscopy. […]

Test [3] concerns Pseudomonas aeruginosa cells (WT, na1B, ΔABM). Kind of test: Overnight culture, visual inspection of turbidity (MIC). It counts as cell-based. Particulars: visual inspection after overnight incubation. The source says: Three strains of Pseudomonas aeruginosa cells (WT, na1B, ΔABM) were used in this working example. “WT” stands for wild type P. aeruginosa, PA04290. The symbol “AABM” stands for a mutant of wild type P. aeruginosa, PA04290, lacking MexA, MaxB and OprM, wherein MexA, MexB and OprM are component genes of an efflux system in wild type P. aeruginosa. The symbol “na1B” stands for a mutant of wild type P. aeruginosa, PA04290, having over expression of the MexA, MexB and OprM genes. These three strains were precultured in autoclaved test tubes overnight. Each test tube contained 3 mL of L-broth medium (1% tryptone, 0.5% yeast extract and 0.5% NaCl, pH 7.2) and was placed inside a shaker at 37° C. and 230 rpm. Then, 20 μL of this pre-cultured cell medium was transferred to each new test tube containing 2 mL of L-broth medium and 0, 2, 20, 40, 80, 100, 200 and 400 μL of a sterile liquid containing 300 pM silver enhanced gold particles (as the metallic nanoparticles used in this example) prepared as described in Example 1. […] Based on visual inspection of test tubes (the presence or absence of turbidity in the medium in each of the test tube) after the overnight incubation, it was determined that the bacterial cells grew at a concentration of the silver coated gold particles of less than 20 pM, but not at a concentration of 20 pM or more. […]

Turning to `C[C@H]1[C@H](NC(=O)/C(=N\OC(C)(C)C(=O)O)c2csc(N)n2)C(=O)N1S(=O)(=O)O` [azthreonam], in test [1], the “absorbance at 600 nm” value is given as “almost zero”. The MIC result with WT P. aeruginosa is recorded as “about 3.13 μg/mL”. Besides, the “total number of P. aeruginosa cells present in the 5 pictures” value in test [2] was “almost zero”. The “minimum inhibitory concentrations (MICs)” value in test [3] is given as “about 3.13 μg/mL”.

Consider gentamicin, for which the “absorbance at 600 nm” value in test [1] is “almost zero”. In addition, the MIC result in the test on WT P. aeruginosa is listed as “about 3.13 μg/mL”. Moreover, in test [2], the “total number of P. aeruginosa cells present in the 5 pictures” value is “almost zero”. For the same molecule, the “minimum inhibitory concentrations (MICs)” value in test [3] is given as “about 3.13 μg/mL”.

(Values after US20030108612A1, “Metallic nanoparticles for inhibition of bacterium growth” (priority 2001, published 2003).)
